The source of these data is patent US12064433B2 (ARCUS BIOSCIENCES, INC., priority 2018, dated 2024).

Bounds are passed on as bounds.

The term Kb denotes the equilibrium dissociation constant of an antagonist, usually derived from a functional assay.

One assay deals with T1, Human A2BR (Homo sapiens, UniProt P29275).
T1 sequence (P29275 1-332): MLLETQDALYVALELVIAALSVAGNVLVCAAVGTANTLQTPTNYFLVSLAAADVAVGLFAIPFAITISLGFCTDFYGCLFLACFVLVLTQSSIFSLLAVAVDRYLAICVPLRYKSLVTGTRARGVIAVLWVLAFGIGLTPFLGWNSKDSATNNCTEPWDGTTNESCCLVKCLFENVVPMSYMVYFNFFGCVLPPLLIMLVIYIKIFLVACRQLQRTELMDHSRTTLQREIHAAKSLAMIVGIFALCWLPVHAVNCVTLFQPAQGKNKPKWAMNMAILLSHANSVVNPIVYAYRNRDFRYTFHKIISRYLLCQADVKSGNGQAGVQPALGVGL
Description: Human 2B Adenosine Receptor CHO-K1 cAMP antagonist functional assay. In kind it is cell-based. To be noted: cAMP antagonist functional assay vs NECA, CHO-K1 cells stably expressing Human A2BR; read-out: A2B (Potency: A2BR KB). The procedure: Measurement of the Adenosine Receptor Activity of Compounds Using a Human 2B Adenosine Receptor CHO-K1 cAMP Functional Assay
CHO-K1 cells stably expressing Human Adenosine 2B Receptor (A2BR: Cat. No. M000329, GenScript) were purchased from GenScript Inc., Piscataway, NJ 08854, USA.
The cAMP antagonist functional assay (Perkin Elmer) was performed on CHO-K1 cells stably expressing Human A2BR. 1×10^6 cells were seeded in T75 flasks and cultured at 37° C. and 5% CO2 overnight. 2,000-4,000 cells/well of stably-expressed A2bR CHO-K1 cells were then seeded to a white 384-well Opti plate followed by compound 1 incubation at various concentrations (ranging from 1 μM to 0 μM) at 37° C. for 1 hour.
(§1) A 1:2 serial dilution of NECA (Sigma Aldrich) from 1 μM to 0 μM was added to the cell stimulation mixture and incubated for 30 min at 37° C. After 30 min incubation, 5 μL of Ulight-anti-cAMP (1:150 dilution with conjugate and lysis buffer provided by Perkin Elmer) and 5 μL of Eu-cAMP tracer (1:50 dilution with conjugate and lysis buffer provided by Perkin Elmer) was added the cells and incubated for an hour. FRET signal was detected with an Envision multilabel plate reader (Perkin Elmer) loaded with 615 nm […] filters and 665 nm emission filters.
(§2) Data analysis was performed using on GraphPad Prism (version 7.02) to determine the KB of the test compounds.

In another assay the target is T2, Human A2AR (Homo sapiens, UniProt P29274).
T2 construct: expressed in transfected cells; host or cells: CHO-T-REx cells, tetracycline-inducible expression
T2 sequence (P29274 whole entry): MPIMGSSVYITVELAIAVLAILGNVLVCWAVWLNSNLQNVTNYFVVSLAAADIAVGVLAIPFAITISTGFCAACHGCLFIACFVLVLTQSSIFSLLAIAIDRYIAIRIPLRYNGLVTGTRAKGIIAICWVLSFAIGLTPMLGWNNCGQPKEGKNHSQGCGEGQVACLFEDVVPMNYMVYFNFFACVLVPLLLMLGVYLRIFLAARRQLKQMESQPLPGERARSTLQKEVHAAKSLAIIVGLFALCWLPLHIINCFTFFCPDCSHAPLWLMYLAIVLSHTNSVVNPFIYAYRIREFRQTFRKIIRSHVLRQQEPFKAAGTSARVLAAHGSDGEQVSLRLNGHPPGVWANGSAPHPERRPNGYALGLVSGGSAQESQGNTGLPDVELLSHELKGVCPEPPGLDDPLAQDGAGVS
Description: Human 2A Adenosine Receptor (A2aR) CHO-TREx cAMP antagonist functional assay. In kind it is cell-based. To be noted: cAMP antagonist functional assay vs NECA, CHO-T-REx cells induced to express Human A2AR; read-out: A2A (Potency: A2AR KB). The procedure:
Measurement of the Adenosine Receptor Activity of Compounds Using a Human 2A Adenosine Receptor (A2aR) CHO-TREx cAMP Functional Assay
The cAMP antagonist functional assay (Perkin Elmer) was performed on CHO-T-REx cells induced to express Human A2AR. Cells were seeded to a white 384-well Opti plate at a density of 1,000 to 2,500 cells per well followed by incubation with various concentrations of compound (ranging from 1 μM to 0 μM) at 37° C. for 1 hour.
as §1, §2

Take `COc1cccc2c(-c3cn(Cc4cccn(CC(C)(C)O)c4=O)nn3)nc(N)nc12` [Example 3]: the Kb at Human A2BR and on Human A2AR was < 100 nM throughout.

For the compound `COc1cccc2c(-c3cn(Cc4cccn([C@@H](C)C5CCOCC5)c4=O)nn3)nc(N)nc12` [Example 29], the Kb at Human A2BR and on Human A2AR was < 100 nM each time.

`COc1cccc2c(-c3cn(Cc4cccn([C@@H](C)C(C)(C)O)c4=O)nn3)nc(N)nc12` [Example 26, 1-[(S)-2-Hydroxy-1,2-dimethylpropyl]-3-{[4-(2-amino-8-methoxy-4-quinazolinyl)-1H-1,2,3-triazol-1-yl]methyl}-1H-pyridin-2-one]: the Kb on Human A2BR and on Human A2AR was < 100 nM each time.

Turning to `COc1cccc2c(-c3cn(Cc4cccn([C@H](C)C5CCOCC5)c4=O)nn3)nc(N)nc12` [Example 28], the Kb at Human A2BR and on Human A2AR was < 100 nM throughout.

As to `COc1cccc2c(-c3cn(Cc4cccn([C@H](C)C(C)(C)O)c4=O)nn3)nc(N)nc12` [Example 27, 1-[(R)-2-Hydroxy-1,2-dimethylpropyl]-3-{[4-(2-amino-8-methoxy-4-quinazolinyl)-1H-1,2,3-triazol-1-yl]methyl}-1H-pyridin-2-one], the figures for the Kb on Human A2BR and at Human A2AR were 100 to 1000 nM and < 100 nM, respectively.

`COC[C@H](C)n1cccc(Cn2cc(-c3nc(N)nc4c(OC)cccc34)nn2)c1=O` [Example 25]: the figures for the Kb at Human A2BR and at Human A2AR were 100 to 1000 nM and < 100 nM, respectively.

Regarding “1-[(S)-Tetrahydro-2H-pyran-3-yl]-3-{[4-(2-amino-8-methoxy-4-quinazolinyl)-1H-1,2,3-triazol-1-yl]methyl}-1H-pyridin-2-one [Example 32]”, the Kb at Human A2BR and on Human A2AR was < 100 nM each time.

As to `COc1cccc2c(-c3cn(Cc4cccn(CC5CCOCC5)c4=O)nn3)nc(N)nc12` [Example 21], the Kb at Human A2BR and at Human A2AR was < 100 nM each time.

Consider “3-{[4-(2-Amino-8-methoxy-4-quinazolinyl)-1H-1,2,3-triazol-1-yl]methyl}-1-(cyclopropylmethyl)-1H-pyridin-2-one [Example 4]”, for which the Kb on Human A2BR was 100 to 1000 nM; at Human A2AR it was < 100 nM.

Consider `CCn1cccc(Cn2cc(-c3nc(N)nc4c(OC)cccc34)cn2)c1=O` [Example 40, 3-{[4-(2-Amino-8-methoxy-4-quinazolinyl)-1H-pyrazol-1-yl]methyl}-1-ethyl-1H-pyridin-2-one], for which the Kb is 100 to 1000 nM at Human A2BR and < 100 nM at Human A2AR.

As to `COC[C@@H](C)n1cccc(Cn2cc(-c3nc(N)nc4c(OC)cccc34)nn2)c1=O` [Example 24], the Kb at Human A2BR and on Human A2AR was < 100 nM throughout.

With `Cc1cccc2c(-c3cn(Cc4cccn(C(C)C)c4=O)nn3)nc(N)nc12` [Example 6], the Kb at Human A2BR and on Human A2AR was < 100 nM throughout.

In the case of `COc1cccc2c(-c3cn(Cc4cccn(C(C)C)c4=O)nn3)cc(N)nc12` [Example 8], the Kb was 100 to 1000 nM on Human A2BR and < 100 nM at Human A2AR.
